Results from ChEMBL document CHEMBL6177955, “Design, synthesis and biological evaluation of Golgi-targeting anion transporters as inducers of Golgiphagy and apoptosis in cancer cells” (Eur J Med Chem, 2025).
pIC50: −log10 of the molar value. Calls of active or inactive are those of the source. No cut-off for these calls is given here.

What was measured:
HepG2 [1] = assay: Induction of apoptosis in human HepG2 cells assessed as early apoptotic cells at 20 uM measured after 24 hrs incubation by Propidium iodide/Annexin V-FITC analysis (reference value: 2.90%); type: functional
[2] = Toxicity in mouse xenografted with human HepG2 cells assessed as histopathological changes in spleen at 5 to 10 mg/kg, ip administered once every 2 days for 21 days by H and E staining based analysis; type: organism-based; settings: in vivo, 504 h, dose 5-10 mg/kg, time 21 day
HepG2 [3] = assay: Cell cycle arrest in human HepG2 cells assessed as accumulation of cells at G2/M phase at 20 uM measured after 24 hrs incubation by flow cytometric analysis; type: functional
HepG2 [4] = assay: Induction of apoptosis in human HepG2 cells assessed as necrotic cells at 5 uM measured after 24 hrs incubation by Propidium iodide/Annexin V-FITC analysis (reference value: 1.14%); type: functional
Lipid bilayer [5] = assay: Vesicular anionophoric activity in large unilamellar vesicle membrane derived from egg-yolk L-alpha-phosphatidylcholine assessed as induction of relative efflux of chloride ions in presence of sodium (Na+) measured up to 300 seconds by using chloride-selective electrode; settings: time <= 300.0 sec
[6] = Toxicity in mouse xenografted with human HepG2 cells assessed as aspartate aminotransferase (AST) at 5 to 10 mg/kg, ip administered once every 2 days for 21 days; type: organism-based; settings: in vivo, 504 h, dose 5-10 mg/kg, time 21 day
HepG2 [7] = assay: Induction of apoptosis in human HepG2 cells assessed as necrotic cells at 10 uM measured after 24 hrs incubation by Propidium iodide/Annexin V-FITC analysis (reference value: 1.14%); type: functional
HepG2 [8] = assay: Induction of autophagosome formation in human HepG2 cells assessed as green fluorescence in Golgi apparatus by measuring pearson co-localization at 10 uM measured after 12 hrs incubation by mCherry-LC3B assay; type: functional
HepG2 [9] = assay: Induction of apoptosis in human HepG2 cells assessed as viable cells at 5 uM measured after 24 hrs incubation by Propidium iodide/Annexin V-FITC analysis (reference value: 90.2%); type: functional; settings: read-out: Activity
HepG2 [10] = assay: Induction of Golgi apparatus disruption in human HepG2 cells at 5 to 10 uM measured after 24 hrs by TEM imaging analysis; type: functional, cell-based; settings: dose 5-10 µM
HepG2 [11] = assay: Antitumor activity against human HepG2 cells xenografted mouse model assessed as reduction GM130 expression in tumor tissue at 5 to 10 mg/kg, ip administered once every 2 days for 21 days; type: functional, organism-based; settings: dose 5-10 mg/kg, time 21.0 day
HepG2 [12] = assay: Induction of apoptosis in human HepG2 cells assessed as early apoptotic cells at 10 uM measured after 24 hrs incubation by Propidium iodide/Annexin V-FITC analysis (reference value: 2.90%); type: functional
HepG2 [13] = assay: Induction of apoptosis in human HepG2 cells assessed as early apoptotic cells at 5 uM measured after 24 hrs incubation by Propidium iodide/Annexin V-FITC analysis (reference value: 2.90%); type: functional
Lipid bilayer [14] = assay: Vesicular anionophoric activity in large unilamellar vesicle membrane derived from egg-yolk L-alpha-phosphatidylcholine assessed as induction of relative efflux of chloride ions in presence of lithium (Li+) measured up to 300 seconds by using chloride-selective electrode; settings: time <= 300.0 sec
HepG2 [15] = assay: Suppression of Golgi structural and functional protein expression in human HepG2 cells assessed as decrease in GM130 protein expression at 5 to 20 uM measured after 48 hrs incubation by Western blot analysis; type: cell-based; settings: dose 5-20 µM
HepG2 [16] = assay: Induction of autophagosome formation in human HepG2 cells assessed as green fluorescence in lysosomes by measuring pearson co-localization at 10 uM measured after 12 hrs incubation by mCherry-LC3B assay; type: functional
[17] = Toxicity in mouse xenografted with human HepG2 cells assessed as body weight change at 5 to 10 mg/kg, ip administered once every 2 days for 21 days; type: organism-based; settings: in vivo, 504 h, dose 5-10 mg/kg, time 21 day
HepG2 [18] = assay: Induction of apoptosis in human HepG2 cells assessed as late apoptotic cells at 20 uM measured after 24 hrs incubation by Propidium iodide/Annexin V-FITC analysis (reference value: 5.71%); type: functional
HepG2 [19] = assay: Antiproliferative activity against human HepG2 cells by MTT assay; type: functional, cell-based
HepG2 [20] = assay: Cell cycle arrest in human HepG2 cells assessed as accumulation of cells at G2/M phase at 10 uM measured after 24 hrs incubation by flow cytometric analysis; type: functional
HepG2 [21] = assay: Induction of apoptosis in human HepG2 cells assessed as reduction in Golgi-associated apoptotic proteins (GAAPs) expression measured after 24 hrs by Western blot analysis; type: functional, cell-based
[22] = Toxicity in mouse xenografted with human HepG2 cells assessed as histopathological changes in heart at 5 to 10 mg/kg, ip administered once every 2 days for 21 days by H and E staining based analysis; type: organism-based; settings: in vivo, 504 h, dose 5-10 mg/kg, time 21 day
Lipid bilayer [23] = assay: Vesicular anionophoric activity in large unilamellar vesicle membrane derived from egg-yolk L-alpha-phosphatidylcholine assessed as induction of relative efflux of chloride ions in presence of rubidium (Rb+) measured up to 300 seconds by using chloride-selective electrode; settings: time <= 300.0 sec
HepG2 [24] = assay: Induction of apoptosis in human HepG2 cells assessed as viable cells at 10 uM measured after 24 hrs incubation by Propidium iodide/Annexin V-FITC analysis (reference value: 90.2%); type: functional; settings: read-out: Activity
HCT-8 = assay: Antiproliferative activity against human HCT-8 cells by MTT assay; type: functional, cell-based
HepG2 [25] = assay: Antitumor activity against human HepG2 cells xenografted mouse model assessed as reduction in tumor growth inhibition at 1 mg/kg, ip administered once every 2 days for 21 days relative to control; type: functional; settings: HepG2, 504 h, time 21 day, read-out: TGI
HepG2 [26] = assay: Antitumor activity against human HepG2 cells xenografted mouse model assessed as reduction in tumor growth inhibition at 10 mg/kg, ip administered once every 2 days for 21 days relative to control; type: functional; settings: HepG2, 504 h, time 21 day, read-out: TGI
HepG2 [27] = assay: Induction of autophagosome formation in human HepG2 cells assessed as green fluorescence in mitochondria by measuring pearson co-localization at 10 uM measured after 12 hrs incubation by mCherry-LC3B assay; type: functional
[28] = Toxicity in mouse xenografted with human HepG2 cells assessed as histopathological changes in liver at 5 to 10 mg/kg, ip administered once every 2 days for 21 days by H and E staining based analysis; type: organism-based; settings: in vivo, 504 h, dose 5-10 mg/kg, time 21 day
HT-29 = assay: Antiproliferative activity against human HT-29 cells by MTT assay; type: functional, cell-based
HepG2 [29] = assay: Induction of chloride ion influx in human HepG2 cells assessed as increase in intracellular chloride anions at 5 to 20 uM measured after 12 hrs incubation by chloride-sensitive dye MQAE-based CLSM imaging analysis; type: functional, cell-based; settings: dose 5-20 µM
HepG2 [30] = assay: Antitumor activity against human HepG2 cells xenografted mouse model assessed as reduction Golgi-associated apoptotic proteins (GAAPs) expression in tumor tissue at 5 to 10 mg/kg, ip administered once every 2 days for 21 days; type: functional, organism-based; settings: dose 5-10 mg/kg, time 21.0 day
Lipid bilayer [31] = assay: Vesicular anionophoric activity in large unilamellar vesicle membrane derived from egg-yolk L-alpha-phosphatidylcholine assessed as induction of relative efflux of chloride ions measured up to 300 seconds by using chloride-selective electrode
[32] = Toxicity in mouse xenografted with human HepG2 cells assessed as histopathological changes in lung at 5 to 10 mg/kg, ip administered once every 2 days for 21 days by H and E staining based analysis; type: organism-based; settings: in vivo, 504 h, dose 5-10 mg/kg, time 21 day

SMILES: NS(=O)(=O)c1ccc(NC(=O)CCCCCNc2c(Nc3cc(C(F)(F)F)cc(C(F)(F)F)c3)c(=O)c2=O)cc1
- Activity (HepG2 [1]): 34.2%
- Activity [2]: Non-toxic
- Activity (HepG2 [3]): 44.07%
- Activity (HepG2 [4]): 1.64%
- Activity (Lipid bilayer [5]): Active
- Activity [6]: Non-toxic
- Activity (HepG2 [7]): 5.17%
- Activity (HepG2 [8]): 0.83
- viability at 5 µM (HepG2 [9]): 73.5%
- Activity (HepG2 [10]): Active
- Activity (HepG2 [11]): Active
- Activity (HepG2 [12]): 20.2%
- Activity (HepG2 [13]): 12%
- Activity (Lipid bilayer [14]): Active
- Activity (HepG2 [15]): Active
- Activity (HepG2 [16]): 0.58
- Activity [17]: Non-toxic
- Activity (HepG2 [18]): 36.5%
- pIC50 (HepG2 [19]): 5.15
- Activity (HepG2 [20]): 17.16%
- Activity (HepG2 [21]): Dose-dependent-effect
- Activity [22]: Non-toxic
- Activity (Lipid bilayer [23]): Active
- viability at 10 µM (HepG2 [24]): 50%
- pIC50 (HCT-8): < 4.30
- inhibition in vivo at 1 mg/kg (HepG2 [25]): 41%
- inhibition in vivo at 10 mg/kg (HepG2 [26]): 77%
- Activity (HepG2 [27]): 0.23
- Activity [28]: Non-toxic
- pIC50 (HT-29): < 4.30
- Activity (HepG2 [29]): Active
- Activity (HepG2 [30]): Active
- EC50 (Lipid bilayer [31]): 1.53 mol%
- Activity [32]: Non-toxic
